According to patent US8912180B2, “Heterocyclic compound” (Astellas Pharma Inc., priority 2010, dated 2014):
Counter-ions that a name gives are not always drawn.

Columns and labels:
[1] = target: T1, human PI3Kδ enzyme (Homo sapiens, UniProt O00329); assay: PI3Kδ enzyme inhibitory activity (PI3-Kinase HTRF Assay kit); assay type: biochemical; details: human PI3Kδ 10 ng/well, ATP 30 μM, PIP2 10 μM, room temperature 30 minutes
T1 construct: purchased Millipore Corporation 14-604
Description: 1. PI3Kδ Enzyme Inhibitory Activity
For the experiment, a PI3-Kinase HTRF Assay kit (Millipore Corporation, Catalogue No. 33-016) and a human PI3Kδ enzyme (Millipore Corporation, Catalogue No. 14-604) were used. The measurement method was in accordance with the appended instructions. The overview thereof is as follows.
PI3Kδ (10 ng/well), phosphatidylinositol-4,5-bisphosphate (10 μM), ATP (30 μM), and the test compound were mixed in a 384-well plate (total 20 μL), and incubated at room temperature for 30 minutes. EDTA and biotinylated phosphatidylinositol-3,4,5-triphosphate were added thereto to stop the reaction. Thereafter, a Europium labeled anti-GST antibody, a GST bond GRP1 PH domain, and streptavidin-APC were added thereto, followed by incubation overnight. An HTRF ratio was measured using an HTRF plate reader.

[2] = target: T2, Human PI3Kα (Homo sapiens, UniProt P42336); assay: PI3Kα enzyme inhibitory activity (Kinase-Glo Plus luminescence); assay type: biochemical; details: human PI3Kα 12 ng/well, phosphatidylinositol 0.2 μg/well, 37° C. 3 hours
T2 construct: purchased Millipore Corporation 14-602
T2 sequence (P42336 whole entry): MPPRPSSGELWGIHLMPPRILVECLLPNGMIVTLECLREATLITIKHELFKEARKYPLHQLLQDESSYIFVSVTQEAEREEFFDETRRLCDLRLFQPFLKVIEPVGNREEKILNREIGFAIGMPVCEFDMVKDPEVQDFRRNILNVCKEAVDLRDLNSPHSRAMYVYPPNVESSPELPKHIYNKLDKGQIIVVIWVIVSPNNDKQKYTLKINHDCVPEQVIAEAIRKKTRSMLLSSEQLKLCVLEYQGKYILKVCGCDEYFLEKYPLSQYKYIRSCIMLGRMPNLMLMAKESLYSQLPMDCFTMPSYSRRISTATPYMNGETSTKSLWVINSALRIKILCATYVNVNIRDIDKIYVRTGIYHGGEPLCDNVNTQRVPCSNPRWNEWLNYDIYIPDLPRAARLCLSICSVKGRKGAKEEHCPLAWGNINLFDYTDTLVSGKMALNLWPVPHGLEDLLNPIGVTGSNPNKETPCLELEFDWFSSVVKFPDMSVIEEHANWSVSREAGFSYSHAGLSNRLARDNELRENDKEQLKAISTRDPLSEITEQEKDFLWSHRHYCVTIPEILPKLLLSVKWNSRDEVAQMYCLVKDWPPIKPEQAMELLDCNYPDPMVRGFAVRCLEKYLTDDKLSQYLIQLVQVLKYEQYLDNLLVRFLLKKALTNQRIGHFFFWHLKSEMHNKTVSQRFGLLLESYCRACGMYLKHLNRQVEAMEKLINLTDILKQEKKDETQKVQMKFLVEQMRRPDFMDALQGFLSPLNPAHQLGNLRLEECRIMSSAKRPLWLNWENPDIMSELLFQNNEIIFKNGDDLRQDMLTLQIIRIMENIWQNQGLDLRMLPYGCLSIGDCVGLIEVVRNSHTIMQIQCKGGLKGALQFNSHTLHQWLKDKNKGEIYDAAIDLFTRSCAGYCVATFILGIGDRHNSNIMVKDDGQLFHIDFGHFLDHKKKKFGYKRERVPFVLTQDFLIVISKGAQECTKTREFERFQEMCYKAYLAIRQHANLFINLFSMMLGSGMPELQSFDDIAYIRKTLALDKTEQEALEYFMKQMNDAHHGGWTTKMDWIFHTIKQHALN
T2 sequence (P27986 whole entry partner): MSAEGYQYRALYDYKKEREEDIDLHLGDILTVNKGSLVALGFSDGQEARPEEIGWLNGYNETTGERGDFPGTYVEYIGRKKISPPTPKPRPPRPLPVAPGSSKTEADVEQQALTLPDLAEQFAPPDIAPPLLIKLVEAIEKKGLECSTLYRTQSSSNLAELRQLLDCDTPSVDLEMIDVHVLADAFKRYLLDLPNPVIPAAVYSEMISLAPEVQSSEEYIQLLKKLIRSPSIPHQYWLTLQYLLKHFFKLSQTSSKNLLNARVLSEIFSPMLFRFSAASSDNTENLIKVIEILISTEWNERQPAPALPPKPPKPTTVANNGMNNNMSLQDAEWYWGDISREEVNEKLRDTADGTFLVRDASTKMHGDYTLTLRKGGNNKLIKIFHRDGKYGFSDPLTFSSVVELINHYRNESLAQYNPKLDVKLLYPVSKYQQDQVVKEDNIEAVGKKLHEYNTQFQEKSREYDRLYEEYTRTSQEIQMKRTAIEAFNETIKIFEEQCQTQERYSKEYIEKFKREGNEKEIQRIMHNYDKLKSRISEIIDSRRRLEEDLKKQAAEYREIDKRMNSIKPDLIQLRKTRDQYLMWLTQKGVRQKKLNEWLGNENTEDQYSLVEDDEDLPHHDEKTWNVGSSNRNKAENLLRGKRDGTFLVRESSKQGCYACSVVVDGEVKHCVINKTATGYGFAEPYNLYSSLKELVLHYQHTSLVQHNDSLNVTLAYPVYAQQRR
Description: 2. PI3Kα Enzyme Inhibitory Activity
Human PI3Kα (12 ng/well, Millipore Corporation, Catalogue No. 14-602), phosphatidylinositol (0.2 μg/well), and the test compound were mixed in a 384-well plate in a reaction buffer (50 mM Hepes, 10 mM NaCl, 10 mM MgCl2, 2 mM EGTA, 2 mM DTT, pH 7.3) (total 10 μl), and incubated at 37° C. for 3 hours. After the reaction, 10 μL of a Kinase-Glo Plus reagent (Promega, Catalogue No. V3772) was added thereto, and a luminescence was measured with a luminometer.

[3] = system: IL-2 production; assay: Rat in vivo IL-2 production inhibition test (Concanavalin A induced); details: 10 mg/kg oral, 2 hours before Concanavalin A 15 mg/kg iv; blood IL-2 at 3 hours, vs vehicle control; male LEW rats
Description: 3. Rat In Vivo IL-2 Production Inhibition Test
For the experiment, male LEW/CrlCrlj rats (Charles River Laboratories, Japan, Inc.) (6-week old, body weight 130 to 180 g) were used. The test compound was suspended in a 0.5% methyl cellulose solution and orally administered at 5 mL/kg. IL-2 production was induced by tail vein injection of Concanavalin A (Funakoshi Corporation, Catalogue No. L-1000) at a dose of 15 mg/kg.
The test was carried out according to the protocol shown below. At 2 hours or 16 hours before administration of Concanavalin A, the test compound was orally administered to rats. At 3 hours after administration of Concanavalin A, blood was collected. The IL-2 concentration in blood was quantified using an ELISA kit (R&D Systems, Inc., Catalogue No. DY502E). An inhibition rate was calculated from the amount of IL-2 produced in a group administered with the test compound with respect to the amount of the IL-2 produced in a control group administered with a vehicle.

[4] = system: Spleen cells prepared from male LEW/CrlCrlj rats (B cell proliferation); assay: Rat B cell proliferation inhibition test (anti-rat IgM, [3H]thymidine); assay type: cell-based; details: anti-rat IgM 3 μg/well, 48 hours culture
Description: 4. Rat B Cell Proliferation Inhibition Test
Spleen cells (1.0×10^5 cells/well) prepared from male LEW/CrlCrlj rats (Charles River Laboratories, Japan, Inc.), mouse F(ab′)2 fragment anti-rat IgM (3 μg/well, SouthernBiotech Associates, Inc., Catalogue No. 3082-14) and the test compound dissolved in DMSO (final DMSO concentration 0.1%) were mixed in a 96-well plate using a 10% FCS-containing RPMI-1640 culture medium (total 200 μL). They were cultured in a CO2 incubator for 48 hours and [^3H]thymidine (925 GBq/mmol, Moravek Biochemicals, Inc., Catalogue No. MT6038) was added thereto at 0.037 MBq/well at 4 hours before completion of culture. Cells were harvested in a GF/C glass filter using a cell harvester, and a radioactivity on the filter was measured using a liquid scintillation counter.

T1 sequence (O00329 whole entry): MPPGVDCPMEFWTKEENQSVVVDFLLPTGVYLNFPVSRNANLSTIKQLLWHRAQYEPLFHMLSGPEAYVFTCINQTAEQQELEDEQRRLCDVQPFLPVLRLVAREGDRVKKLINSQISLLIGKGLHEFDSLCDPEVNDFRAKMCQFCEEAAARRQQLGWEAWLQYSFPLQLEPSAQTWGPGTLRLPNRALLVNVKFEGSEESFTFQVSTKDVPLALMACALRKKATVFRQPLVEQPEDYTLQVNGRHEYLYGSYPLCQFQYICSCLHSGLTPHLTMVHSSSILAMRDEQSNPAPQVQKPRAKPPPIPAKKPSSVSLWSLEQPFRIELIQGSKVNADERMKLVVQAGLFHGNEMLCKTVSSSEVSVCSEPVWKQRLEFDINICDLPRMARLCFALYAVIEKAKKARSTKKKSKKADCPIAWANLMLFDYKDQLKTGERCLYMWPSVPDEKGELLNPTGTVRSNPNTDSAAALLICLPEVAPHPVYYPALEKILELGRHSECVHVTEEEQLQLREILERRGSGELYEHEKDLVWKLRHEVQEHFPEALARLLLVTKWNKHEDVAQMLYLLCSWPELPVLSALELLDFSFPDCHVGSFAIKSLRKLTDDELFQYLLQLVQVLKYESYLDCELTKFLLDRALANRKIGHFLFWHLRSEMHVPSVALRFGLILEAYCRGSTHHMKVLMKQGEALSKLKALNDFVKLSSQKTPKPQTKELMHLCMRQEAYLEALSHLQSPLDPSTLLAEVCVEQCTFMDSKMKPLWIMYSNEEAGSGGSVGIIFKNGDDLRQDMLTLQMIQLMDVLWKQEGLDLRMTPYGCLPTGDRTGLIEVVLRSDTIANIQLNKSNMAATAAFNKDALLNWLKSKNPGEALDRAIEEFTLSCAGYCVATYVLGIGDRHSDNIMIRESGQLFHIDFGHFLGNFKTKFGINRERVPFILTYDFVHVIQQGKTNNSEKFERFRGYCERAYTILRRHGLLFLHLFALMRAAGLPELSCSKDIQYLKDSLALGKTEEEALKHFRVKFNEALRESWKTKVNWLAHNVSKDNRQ
T1 sequence (P27986 whole entry partner): as the sequence (P27986 whole entry partner) above

Row | Structure (SMILES) | IC50 [1] [nM] | IC50 [2] [nM] | inhibitory activity (IL-2 production inhibition rate) [3] [%] | IC50 [4] [nM]
1 | FC(F)c1nc2ccccc2n1-c1cc(N2CCOCC2)nc(NCC2CCN(C3CCOCC3)CC2)n1 [Example 10] | 5.8 | > 3000 | 77 | 2.9
2 | OCC1CCC(N2CCC(CNc3nc(N4CCOCC4)cc(-n4c(C(F)F)nc5ccccc54)n3)CC2)CC1 (stereo not drawn) [Example 29] | 45 | > 3000 | 51 | 
3 | CC(=O)N1CCC(N2CCC(CNc3nc(N4CCOCC4)cc(-n4c(C(F)F)nc5ccccc54)n3)CC2)CC1 [Example 33] | 11 | > 3000 | 75 | 
4 | CS(=O)(=O)N1CCC(N2CCC(CNc3nc(N4CCOCC4)cc(-n4c(C(F)F)nc5ccccc54)n3)CC2)CC1 [Example 34] | 14 | > 3000 | 72 | 
5 | C[C@@H]1COCCN1c1cc(-n2c(C(F)F)nc3ccccc32)nc(NCC2CCN(C3CCOCC3)CC2)n1 [Example 37] | 20 | 1900 | 81 | 1.52
6 | FC(F)c1nc2ccccc2n1-c1cc(N2CCOCC2)nc(NCC2CCN([C@H]3CC[C@H](F)CC3)CC2)n1 [Example 43-1, 4-[2-(difluoromethyl)-1H-benzimidazol-1-yl]-N-{[1-(trans-4-fluorocyclohexyl)piperidin-4-yl]methyl}-6-(morpholin-4-yl)pyrimidin-2-amine dihydrochloride] | 8 | 13000 | 73 | 2.1
7 | CC(C)(O)CNC12CCC(CNc3nc(N4CCOCC4)cc(-n4c(C(F)F)nc5ccccc54)n3)(CC1)CC2 [Example 85, 1-({4-[({4-[2-(difluoromethyl)-1H-benzimidazol-1-yl]-6-(morpholin-4-yl)pyrimidin-2-yl}amino)methyl]bicyclo[2.2.2]oct-1-yl}amino)-2-methylpropan-2-ol] | 21 | 5500 |  | 2.6
8 | COC(=O)N[C@H]1CCN([C@H]2CC[C@H](Oc3cc(-n4c(C(F)F)nc5ccccc54)nc(N4CCOCC4)n3)CC2)C1=O [Example 87, methyl{(3S)-1-[trans-4-({6-[2-(difluoromethyl)-1H-benzimidazol-1-yl]-2-(morpholin-4-yl)pyrimidin-4-yl}oxy)cyclohexyl]-2-oxopyrrolidin-3-yl}carbamate] | 4.9 | > 10000 |  | 3.5
9 | CC(=O)N[C@H]1CCN([C@H]2CC[C@H](Oc3cc(-n4c(C(F)F)nc5ccccc54)nc(N4CCOCC4)n3)CC2)C1=O [Example 99] | 16 | > 10000 |  | 2.5
10 | CN(CC(C)(C)O)C12CCC(CNc3nc(N4CCOCC4)cc(-n4c(C(F)F)nc5ccccc54)n3)(CC1)CC2 [Example 121] | 13 | 4900 |  | 2
11 | Cc1ccc2nc(C(F)F)n(-c3cc(N4CCOCC4)nc(NC[C@H]4CC[C@H](N5CCOCC5)CC4)n3)c2c1 [Example 132] | 12 | > 10000 |  | 1.5
12 | O=C(CNC1CCCC1)N[C@H]1CC[C@H](Oc2cc(-n3c(C(F)F)nc4ccccc43)nc(N3CCOCC3)n2)CC1 [Example 134] | 4.7 | 6600 |  | 3.4
13 | O=C(CNC1CCCCC1)N[C@H]1CC[C@H](Oc2cc(-n3c(C(F)F)nc4ccccc43)nc(N3CCOCC3)n2)CC1 [Example 135] | 3 | 8000 |  | 2.5
14 | O=C(CNC1CCOCC1)N[C@H]1CC[C@H](Oc2cc(-n3c(C(F)F)nc4ccccc43)nc(N3CCOCC3)n2)CC1 [Example 136] | 4 | > 10000 |  | 1.7
15 | CC1(NCC(=O)N[C@H]2CC[C@H](Oc3cc(-n4c(C(F)F)nc5ccccc54)nc(N4CCOCC4)n3)CC2)CC1 [Example 137] | 5.2 | > 10000 |  | 4.6
16 | CCOC(=O)N1CCN(c2ccc(CNc3nc(N4CCOCC4)cc(-n4c(C(F)F)nc5ccccc54)n3)cc2)CC1 [Example 158] | 11 | 6700 |  | 10
17 | FC(F)c1nc2ccccc2n1-c1cc(N2CCOCC2)nc(NCC2CCN(C3CCCCC3)CC2)n1 [Example 193] | 4.9 | 8200 |  | 4.1
18 | FC(F)c1nc2ccccc2n1-c1cc(N[C@H]2C[C@@H]3C[C@H](N4CCOCC4)C[C@@H]3C2)nc(N2CCOCC2)n1 [Example 195] | 4.1 | > 10000 |  | 3
19 | CN(CC(=O)NC1CCC(Oc2cc(-n3c(C(F)F)nc4ccccc43)nc(N3CCOCC3)n2)CC1)C1CCC1 (stereo not drawn) [Example 196] | 4.8 | > 10000 |  | 3.6
20 | NC1(C(=O)N[C@H]2CC[C@H](Oc3cc(-n4c(C(F)F)nc5ccccc54)nc(N4CCOCC4)n3)CC2)CCC1 [Example 215] | 13 | > 10000 |  | 6.7
21 | NC1(C(=O)N[C@H]2CC[C@H](Oc3cc(-n4c(C(F)F)nc5ccccc54)nc(N4CCOCC4)n3)CC2)CCCC1 [Example 216] | 13 | > 10000 |  | 5.7
22 | C[C@@H]1C[C@@H](N2CCC(CNc3nc(N4CCOCC4)cc(-n4c(C(F)F)nc5ccccc54)n3)CC2)C[C@H](C)O1 [Example 224] | 3.3 | 7300 |  | 1.5
23 | COC(=O)N[C@H]1CCN([C@H]2CC[C@H](Nc3nc(N4CCOCC4)cc(-n4c(C(F)F)nc5ccccc54)n3)CC2)C1=O [Example 248, methyl{(3S)-1-[trans-4-({4-[2-(difluoromethyl)-1H-benzimidazol-1-yl]-6-(morpholin-4-yl)pyrimidin-2-yl}amino)cyclohexyl]-2-oxopyrrolidin-3-yl}carbamate] | 34 | 720 |  | 1.4
24 | COC(=O)N[C@@H]1CCN([C@H]2CC[C@H](Oc3cc(-n4c(C(F)F)nc5ccccc54)nc(N4CCOCC4)n3)CC2)C1=O [Example 389] | 11 | > 10000 |  | 4.4
25 | CCOC(=O)N[C@@H]1CCN([C@H]2CC[C@H](Oc3cc(-n4c(C(F)F)nc5ccccc54)nc(N4CCOCC4)n3)CC2)C1=O [Example 423] | 24 | > 10000 |  | 3.1
26 | COC(=O)N[C@@H]1CCN([C@H]2CC[C@H](Nc3nc(N4CCOCC4)cc(-n4c(C(F)F)nc5ccccc54)n3)CC2)C1=O [Example 441] | 48 | 1400 |  | 1.8
27 | CN1CCC(CNc2nc(N3CCOCC3)nc(-n3c(C(F)F)nc4ccccc43)n2)CC1 [Example A4] | 31 | 730 | 58 | 
